We go through nine molecules from PubChem BioAssay (NCI).

Holding throughout (experiment): DTP human tumour cell line panel, 48 h
The subject of test [1] is K-562 leukemia.
The test system of test [2] is KM20L2 colon.
The subject of test [3] is SNB-78 CNS.
The test system of test [4] is LXFL 529 NSCLC.
The subject of test [5] is HOP-18 NSCLC.
Test [6] deals with ACHN renal.
Test [7] deals with HT29 colon.
Test [8] has as its system M19-MEL melanoma.
The test system of test [9] is TK-10 renal.
The test system of test [10] is XF 498 CNS.
The test system of test [11] is HCT-15 colon.
For test [12], the system named is DMS 114 small cell lung.
Test [13] concerns DMS 273 small cell lung.
The test system of test [14] is DLD-1 colon.

The structures appear in SMILES notation. Where “and” joins values, the source holds several entries; their conditions need not be identical. Equal entries are not always repeated.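 Briefly, cells in 96-well plates were exposed to five compound concentrations for 48 h, and endpoints were estimated by linear interpolation. GI50 marks 50% less growth. Definition used: TGI = concentration required for complete inhibition of growth.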

`O=C1C(Cl)C(c2ccccc2)N1n1cnc2ccccc2c1=O` (centres undefined): the total growth inhibition concentration (TGI) in test [1], in [2], in [3], in test [4], in [5] and in test [6] was greater than 100 µM each time. In addition, the TGI in test [7], in test [8], in [9], in test [10], in [11] and in [12] was greater than 100 µM each time. Also, the concentration for total growth inhibition (TGI) in test [13] and in test [14] was greater than 100 µM each time.
Turning to `C/C(=C1/CCCC2(N=NCC2c2ccccc2)C1=O)c1ccccc1` (centres undefined), the TGI is 41.4 µM in test [1]; greater than 100 µM in test [2]; 90.2 µM in test [3]; 65.1 µM in test [4]; greater than 100 µM in test [5]; greater than 100 µM in test [6]. In addition, the total growth inhibition concentration (TGI) in test [7] was 56.7 µM; in test [8], 65 µM; in [9], greater than 100 µM; in test [10], 49.2 µM; in test [11], greater than 100 µM; in [12], 33.2 µM. The total growth inhibition concentration (TGI) is 33.3 µM in [13] and greater than 100 µM in test [14].
Regarding `OCC1OC(n2cnc3c2NC=NC[C@H]3O)C(O)C1O` (some centres undefined), the concentration for total growth inhibition (TGI) was greater than 284 µM in test [1]; greater than 450 µM in test [2]; greater than 450 µM in test [3]; greater than 450 µM in [5]; greater than 450 µM in [7]; greater than 450 µM in test [8]. Further, the concentration for total growth inhibition (TGI) in test [10], in test [11], in test [12], in [13] and in [14] was greater than 450 µM in each case.
Take `CCOC(=O)C(N=Nc1ccc(S(N)(=O)=O)cc1)C(C)=O` (centres undefined): the TGI in [1], in test [2], in [3], in [4], in [5] and in test [6] was greater than 100 µM each time. For the same molecule, the concentration for total growth inhibition (TGI) in test [7], in test [8], in test [9], in [10], in test [11] and in [12] was greater than 100 µM throughout. Further, the total growth inhibition concentration (TGI) in [13] and in [14] was greater than 100 µM throughout.
As to `O=[N+]([O-])c1ccc(-n2nnc(C3=NCCCN3)c2-c2ccc(Cl)cc2)cc1`, the concentration for total growth inhibition (TGI) in [1], in test [2], in test [3], in test [4], in test [5] and in test [6] was greater than 100 µM in each case. Further, the TGI in test [7], in [8], in [9], in [10], in test [11] and in [13] was greater than 100 µM in each case. Moreover, in test [14], the total growth inhibition concentration (TGI) is greater than 100 µM.
Consider `C=C1C(=O)O[C@H]2[C@H]1[C@@H](OC(=O)C=C(C)C)CC1=C[C@@H](C[C@@]3(C)O[C@@H]23)OC1=O`, for which the GI50 in test [1] was 1.02 µM and 3.16 µM; in test [3], 2.35 µM and 10.6 µM; in test [8], 4.37 µM; in test [10] it was 2.4 µM; in test [11], 3.46 µM; in [13], 24.7 µM. In addition, the TGI in test [1] is 50.2 µM and 9.4 µM; in test [3] it was 15.1 µM and 40.2 µM; in [5], 10.2 µM; in test [7], 12.5 µM; in test [8], 8.29 µM and 16.7 µM; in [10] it was 3.79 µM and 4.51 µM. The concentration for total growth inhibition (TGI) was 3.97 µM and 11.7 µM in [11]; 11.8 µM in [14].
As to `COc1ccc(C(=O)C(CO)Oc2ccccc2OC)cc1OC` (centres undefined), the TGI in [1], in test [2], in [3], in test [4], in test [6] and in test [7] was greater than 100 µM throughout. In addition, the TGI in test [8], in test [9], in test [10], in test [11], in test [12] and in test [13] was greater than 100 µM in each case. This molecule came in with a total growth inhibition concentration (TGI) in test [14] greater than 100 µM.
`COc1cc2c(cc1OC)C(O)[C@H](Br)C(C)(C)O2` (some centres undefined): the TGI in test [1], in test [2], in [4], in test [5], in test [6] and in test [7] was greater than 100 µM throughout. Besides, the TGI in test [8], in test [9], in test [10], in [11], in test [12] and in [13] was greater than 100 µM throughout. In test [14], this molecule registered a TGI greater than 100 µM.
Consider `O=c1cc(-c2ccccc2)[nH]c2cc3c(cc12)OCO3`, for which the concentration for total growth inhibition (TGI) in test [1] was greater than 100 µM; in test [2] it was 12.2 µM; in [3] it was greater than 78.8 µM; in test [4], greater than 100 µM; in test [5], greater than 100 µM; in test [6] it was greater than 100 µM. For the same molecule, the TGI in test [7] was greater than 46.4 µM; in test [8] it was greater than 100 µM; in [9], greater than 94 µM; in [10] it was greater than 67.2 µM; in test [11], greater than 100 µM; in [13] it was 84.9 µM. In test [14], this molecule displayed a total growth inhibition concentration (TGI) greater than 100 µM.

The TGI is the concentration giving total growth inhibition. What is called GI50 is the concentration that inhibits growth by half.
